Experiments:
[1] = target: T1, guinea-pig tracheal strips (LTD4 concentration-response) (Cavia porcellus, UniProt Q2NNR5); experiment: LTD4 antagonism in guinea-pig tracheal strips (pKB); settings: for Kb: Pharmacological Data table; for pKB value: guinea-pig tracheal strips, negative logarithm of the antagonist dissociation constant
T1 construct: from tissue; host or cells: guinea-pig tracheal strips
T1 sequence (Q2NNR5 1-340): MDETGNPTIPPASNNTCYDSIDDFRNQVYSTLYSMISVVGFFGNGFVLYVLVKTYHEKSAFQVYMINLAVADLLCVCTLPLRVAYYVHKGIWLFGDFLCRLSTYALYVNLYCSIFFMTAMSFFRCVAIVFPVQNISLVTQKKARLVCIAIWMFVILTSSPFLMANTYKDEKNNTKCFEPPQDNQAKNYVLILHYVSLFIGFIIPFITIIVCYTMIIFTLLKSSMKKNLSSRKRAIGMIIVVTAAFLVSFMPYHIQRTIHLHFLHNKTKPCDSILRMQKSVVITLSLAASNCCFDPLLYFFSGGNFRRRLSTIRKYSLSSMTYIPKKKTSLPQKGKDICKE
Description: Leukotrine antagonists may be further characterized using guinea-pig tracheal strips instead of ileum strips (10). In this relevant in vitro model of human airways (11) tracheal strips are suspended in a physiological buffer containing indomethacin. A concentration-response curve to LTD4 is generated in the presence and absence of the leukotriene antagonist. From these curves the potency of a leukotriene antagonist may be expressed as the pKB value, the negative logarithm of the antagonist dissociation constant. The pKB value is determined as -log ([antagonist]/(dose ratio -1)), where the dose ratio is defined as EC50 (pressence of antagonist)/EC50 (absence of antagonist) and EC50 refers to the concentration of LTD4 eliciting 50% of the maximum response to LTD4 (12).

[2] = target: T2, LTD4 receptor (Cavia porcellus, UniProt Q2NNR5); experiment: receptor binding: competition with [^3 H]LTD4 on guinea-pig lung membranes; settings: negative logarithm of molar concentration inhibiting binding by 50%, read-out: pIC50 value ([^3 H]LTD4 binding) (converted)
T2 construct: from tissue; host or cells: guinea-pig lung membranes
T2 sequence (Q2NNR5 1-340): T1 sequence (Q2NNR5 1-340)
Description: It is of importance to investigate the receptor binding properties of leukotriene antagonists in relation to their pKB values (13), i.e. to correlate antagonist receptor blocking with inhibition of smooth muscle contraction. Receptor binding studies may be performed with guinea-pig lung membranes in a direct competition assay between a leukotriene antagonist and [^3 H]LTD4 for binding to the LTD4 receptor (10,13).

[3] = system: 5-lipoxygenase; experiment: 5-lipoxygenase activity in vitro (leukotriene B4 and 5-HETE production in A23187-stimulated rat peritoneal cells); format: cell-based; settings: 10^-6 M
Protocol: (§1) The following method was used to assay 5-lipoxygenase activity in vitro: Rat peritoneal cells were harvested by i.p. injection of 10 ml Hank's balanced salt solution (GIBCO, cat. No. 4025, U.S.A.) containing 12.5 U/ml sodium heparin (Leo, Denmark) in anaesthesized rats. The resulting cell suspension, which mainly contained macrophages, was transferred to a test tube and washed twice by centrifugation (200 g, 10 min.) and resuspended in Hank's balanced salt solution containing 0.5% bovine serum albumin (BSA) (Sigma Chem. Co., U.S.A.). The cells from 9 rats were finally resuspended in Hank's balanced salt solution (with BSA) containing 5 μCi [1-^14 C]arachidonic acid (The Radiochemical Centre, Amersham, U.K.) and incubated for 90 minutes at 37° C. This caused labelling of cell membrane phospholipids as radioactive arachidonic acid was incorporated in the 2-position of the glycerol moiety. Excess arachidonic acid was then removed by washing the cells twice as described above. The cells were finally resuspended in the same solution (without BSA) at 10^7 cells/ml. 475 μl of the cell suspension was preincubated at 37° C. for 5 minutes with either 5 μl dimethylsulphoxide (DMSO) (control tube), or 5 μl of a drug solution in DMSO. Then 20 μl of a mixture of equal volumes of the calcium ionophore A23187, 10^-4 M in ethanol (Calbiochem, U.S.A.), and 0.4M CaCl2 in water was added. The final concentration of A23187 was thus 2×10^-6 M, and of Ca^++ 8 mM. After 5 minutes of incubation the tubes were transferred to an ice-bath and centrifuged for 10 minutes at 3,000 g (4° C.). An aliquot of the supernatant was counted by liquid scintillation spectrometry in order to calculate the total radioactive release induced by A23187 in presence of drugs. A decrease in radioactive release was taken as indication of phospholipase A2 inhibition. The supernatant was then extracted with ethyl acetate (2 ml), adjusted to pH 3 with 1N HCl and further extracted with 2 ml ethyl acetate. The combined extracts were evaporated to dryness in vacuo, the residue was redissolved in a small volume of methanol and applied by means of a Desaga Autospotter™ to a silica-gel coated thin-layer plate fitted with a polar concentrating zone (Merck Art. 11798, Darmstadt, F.R.G.). The plates were developed in the organic layer of the solvent mixture ethyl acetate/acetic acid/iso-octane/water (55:10:25:50). Radioactive spots were detected by autoradiography (AGFA-GEVAERT, Osray-RPI X-ray film, Belgium), and changes induced by drugs in the metabolic pattern of arachidonic acid were quantified by a laser densitometer (LKB, Ultroscan™ 2202, Bromma, Sweden) in combination with an integrating computer (SP 4100, Spectra-Physics, San Jose, Calif., U.S.A.).
(§2) These cells produced measurable amounts of radioactive 6-keto-prostaglandinF1α, thromboxane B2, prostaglandin D2, hydroxyheptadecatrienoic acid (HHT) (all cyclooxygenase products), 5-hydroxyeicosatetraenoic acid (5-HETE) and leukotriene B4 (both 5-lipoxygenase products).
(§3) At the same time, a decrease in synthesis of the cyclooxygenase products HHT, prostaglandin D2, thromboxane B2 and 6-keto-prostaglandin F1α was not observed. This pattern of drug activity is indicative of truly specific 5-lipoxygenase inhibition.

[4] = system: cyclooxygenase; experiment: synthesis of cyclooxygenase products in A23187-stimulated rat peritoneal cells; format: cell-based; settings: 10^-6 M
Protocol: as §1, §2, §3

[5] = Pharmacological Data, IC50 (test not stated); settings: Pharmacological Data table

Compound | Kb [1] | pKB value [1] | IC50 [2] | decrease in the production of leukotriene B4 and 5-HETE [3] | decrease in synthesis of the cyclooxygenase products HHT, prostaglandin D2, thromboxane B2 and 6-keto-prostaglandin F1α [4] | IC50 [5]
O=C(O)COc1cccc(CNc2cccc(OCc3ccc4ccccc4n3)c2)c1 [Example 1, 3-(2'-Quinolylmethoxy)-N-(3"-carboxymethoxybenzyl)aniline] | 0.00501 µM | 8.3 | 0.0501 µM | – | – | –
O=C(O)c1ccccc1NCc1cccc(OCc2ccc3ccccc3n2)c1 [Example 2] | – | – | – | significant and specific decrease | not observed | –
O=C(O)Cc1ccc(NCc2cccc(OCc3ccc4ccccc4n3)c2)cc1 [Example 8] | – | – | – | significant and specific decrease | not observed | –
O=C(O)COc1ccccc1CNc1cccc(OCc2ccc3ccccc3n2)c1 [Example 9, 3-(2'-quinolylmethoxy)-N-(2"-carboxymethoxybenzyl)aniline] | 0.000316 µM | 9.5 | 0.00794 µM | significant and specific decrease | not observed | 0.016 µM
O=C(O)COc1ccc(CNc2cccc(OCc3ccc4ccccc4n3)c2)cc1 [Example 10, 3-(2'-quinolylmethoxy)-N-(4"-carboxymethoxybenzyl)aniline] | 0.00398 µM | 8.4 | 0.0316 µM | – | – | –
O=C(O)CCOc1ccccc1CNc1cccc(OCc2ccc3ccccc3n2)c1 [Example 11] | – | – | – | significant and specific decrease | not observed | –
CC(Oc1ccc(CNc2cccc(OCc3ccc4ccccc4n3)c2)cc1)C(=O)O (stereo not shown) [Example 12, 3-(2'-quinolylmethoxy)-N-(4"-(1-carboxyethoxy)benzyl)aniline] | – | – | – | significant and specific decrease | not observed | –
CC(Oc1ccccc1CNc1ccc(OCc2ccc3ccccc3n2)cc1)C(=O)O (stereo not shown) [Example 13] | – | – | – | significant and specific decrease | not observed | –
O=C(O)CCCOc1ccccc1CNc1cccc(OCc2ccc3ccccc3n2)c1 [Example 14, 3-(2'-quinolylmethoxy)-N-(2"-carboxy-(3-propyloxy)benzyl)aniline] | – | – | – | significant and specific decrease | not observed | –
O=C(O)CCCOc1ccc(CNc2cccc(OCc3ccc4ccccc4n3)c2)cc1 [Example 16] | – | – | – | significant and specific decrease | not observed | –
O=C(NO)c1ccc(CN(Cc2cccc(F)c2)c2cccc(OCc3ccc4ccccc4n3)c2)cc1 [Example 20, 3(2'-Quinolylmethoxy)-N-(3"-fluorobenzyl)-N-(4'"-hydroxaminocarbonylbenzyl)aniline] | – | – | – | significant and specific decrease | not observed | –
O=C(NO)c1ccccc1Nc1cccc(OCc2ccc3ccccc3n2)c1 [Example 21, 3-(2'-Quinolylmethoxy)-N-(2"-hydroxaminocarbonylphenyl)-aniline] | – | – | – | significant and specific decrease | not observed | –
O=C(O)COc1ccccc1CNc1ccc(OCc2ccc3ccccc3n2)cc1 [Example 22, 4-(2'-Quinolylmethoxy)-N-(2"-carboxymethoxybenzyl)-aniline] | – | – | – | significant and specific decrease | not observed | –
c1ccc(CNc2ccc(OCc3ccc4ccccc4n3)cc2)cc1 [example 38] | – | – | – | – | – | 0.9 µM
c1ccc(CNc2cccc(OCc3ccc4ccccc4n3)c2)cc1 [example 39, reference compound] | 0.126 µM | – | – | – | – | 0.03 µM
c1ccc(CNc2ccccc2OCc2ccc3ccccc3n2)cc1 [example 67] | – | – | – | – | – | > 10 µM
O=C(O)CN(Cc1ccccc1)c1cccc(OCc2ccc3ccccc3n2)c1 [ref. I] | – | – | – | – | – | 0.04 µM
